# Results as given in patent US10758517B2, “mPGES-1 inhibitor for the treatment of osteoarthritis pain” (Glenmark Pharmaceuticals S.A., priority 2017, dated 2020).
# Marks after values point to notes of the source that are not given here.
# Test system: LPS-induced PGE2 release
# Experiment: Ex vivo LPS-induced PGE2 release in whole blood, single dose crossover versus celecoxib (Example 1, Part 3)
# Parameters: species or system human
# Conditions: single oral dose 400 mg, fasted healthy subjects
# Procedure: Part 2 was a single-dose, double-blind study in a single cohort of elderly subjects. Part 3 was an open-label, randomized, 2-period, single-dose, crossover study to compare effects of the highest tolerated Compound I dose and celecoxib on prostanoid metabolism in healthy adult subjects.
# In Part 3, Compound I was administered at a dose of 1000 mg after fasting. All subjects received Compound I and all subjects received 400 mg celecoxib in a cross-over study design.
# In Parts 1a and 3, whole blood samples were incubated and analyzed for lipopolysaccharide (LPS)-induced prostaglandin PGE2 release. In Part 3, urine samples were collected for analysis of prostanoid metabolites.
# Summary statistics were presented for the PK, pharmacodynamic (PD) and safety data, as appropriate. PK parameters following single oral doses of Compound I were determined from the plasma concentrations of Compound I using non-compartmental procedures in WinNonlin Dose proportionality was assessed using a power model, with tmax analyzed using the Kruskal-Wallis test. The effect of food on PK was assessed at the 100 and 250 mg doses using a mixed effects model. The effect of age on PK was assessed for elderly (>65 years) versus non-elderly (<65 years) at the 250 mg dose level in Parts 1a and 2, using an analysis of variance (ANOVA) with age as a fixed effect. For PD analyses, percent decrease of ex vivo LPS-induced PGE2 release was calculated. For Part 3, urinary excretion of prostanoid metabolites was also evaluated. The data are presented as absolute, as well as creatinine normalized urinary biomarker amounts, along percent change from baseline over a definite time interval. The percent change from baseline in urinary biomarkers was assessed using an analysis of covariance (ANCOVA) model
# Percent change in ex vivo LPS-induced PGE2 release in whole blood is the pharmacodynamic (PD) biomarker. The PGE2 levels in whole blood were estimated using the homogeneous time-resolved fluorescence method.
# Concentrations below the limit of quantification were treated as ½ the lower limit of quantification for calculation.
# Time points where unstimulated prostaglandin E2 (PGE2) concentration was more than 3 times greater than the mean unstimulated PGE2 and equal to or greater than ½ baseline value for an individual subject were not included in the calculation of % inhibition.
structure (smiles),measurement,setting,value
"Cc1ccc(-c2cc(C(F)(F)F)nn2-c2ccc(S(N)(=O)=O)cc2)cc1 [Celecoxib, celecoxib, reference compound]","EAUC0-24 h, LS mean",,1421 % · h
same,"ETmax (time to reach maximum effect), Median",,6.00 h
same,"Epeak (maximum % inhibition), LS mean",,89.1%
same,"EAUC0-336 h, LS mean",N = 18,−10159^a % · h
